Results reported in patent publication US20240391870A1 (Arcturus Therapeutics, Inc., priority 2023, published 2024).
Like-named read-outs stand apart in the source and are kept apart here.

Tests used:
[1] = Lipid nanoparticle size, PDI and encapsulation; type: physicochemical; details: Table 3
[2] = In vivo biodegradability assay (lipid in liver); details: Table 3; liver tissue, 0.3 mg/kg dose
Protocol: (§1) In vivo biodegradability assay was performed to assess the biodegradability of lipids in the LNP. Briefly, mice were injected with either 0.1 or 0.03 mg/Kg dose and after 24 or 48 hours mice livers were collected. To measure the concentration of lipids in the mouse liver, liver samples were homogenized in appropriate buffer in 1-10 dilution and mixed with the same amount of stabilized plasma. The samples were then mixed with organic solvents spiked with internal standard to precipitate proteins. After centrifugation, supernatant was diluted further with organic solvent before sample analysis by LC-MS. In LC-MS analysis, positive electrospray ionization was used, and multiple reaction monitoring (MRM) parameters were set up to specifically target the lipid analyte and internal standard. Calibration standards were prepared in stabilized plasma and mixed with same amount of homogenization buffer before protein precipitation. Quality control samples with known amounts of lipid was prepared in blank liver homogenate to monitor the precision and accuracy of the assay.

[3] = Lipid nanoparticle size, PDI and encapsulation; type: physicochemical; details: Table 3; for Size (nm): lipid nanoparticle; for EE %: lipid nanoparticle encapsulation
Protocol: In the context of nucleic acids, full encapsulation may be determined by performing a membrane-impermeable fluorescent dye exclusion assay, which uses a dye that has enhanced fluorescence when associated with nucleic acid. Encapsulation is determined by adding the dye to a lipid formulation, measuring the resulting fluorescence, and comparing it to the fluorescence observed upon addition of a small amount of nonionic detergent. Detergent-mediated disruption of the lipid layer releases the encapsulated nucleic acid, allowing it to interact with the membrane-impermeable dye. Nucleic acid encapsulation may be calculated as E=(I0−I)/I0, where I and I0 refer to the fluorescence intensities before and after the addition of detergent.

[4] = Measured pKa in the indicated formulation
Protocol: Measured pKa values were determined based on the pH measured in the indicated formulation (i.e., EPO or FVII formulation).

factor VII = experiment: Factor VII knock down evaluation (LNP with FVII siRNA); type: in vivo, Balb/C mice; details: Table 3; 0.03 mg/kg
Outline: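 Female Balb/C mice, 7–8 weeks old, received FVII siRNA lipid nanoparticles intravenously at 0.03 or 0.01 mg/kg. Plasma was collected 48 h later and FVII protein measured by chromogenic assay at 405 nm against a control plasma calibration curve. Levels are relative to saline-treated controls.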

hEPO = hEPO mRNA expression evaluation (hEPO-LNPs); type: in vivo, Balb/c mice; details: Table 3; 0.3 mg/kg
[5] = mouse, in vivo
Protocol: as §1

Row | PDI [1] | Invivo lipid degradability ng/g of Liver tissue @ 0.3 mg/kg dose [2] | Size (nm) [3] [nm] | EE % [3] [%] | pKa [4] | SMILES | FVII KD % @ 0.03 mg/kg (factor VII) [%] | EPO expression in ng/mL @ 0.3 mg/kg (hEPO) [ng/mL] | Invivo lipid degradability ng/g of Liver tissue @ 0.3 mg/kg dose [5] [ng/g] | pKa ([4]; Table 3, formulation not indicated)
1 | 0.076 | 14200 ng/g | 85.94 | 93.1 | 6.93 | CN(C)CCCSC(=O)N(CCCC(=O)OCC(C)(COC(=O)CCC1CCCCC1)COC(=O)CCC1CCCCC1)CCCC(=O)OCC(C)(COC(=O)CCC1CCCCC1)COC(=O)CCC1CCCCC1 [Lipid 53, ((4,4′-((((3-(Dimethylamino)propyl)thio)carbonyl)azanediyl)bis(butanoyl))bis(oxy))bis(methylene))bis(2-methylpropane-2,1,3-triyl)tetrakis(3 cyclohexylpropanoate)] | 85.45 | 15844.04 |  | 
2 | 0.056 | 6880 ng/g | 72.43 | 95.3 | 6.64 | CN(C)CCCC(=O)OC(CCCC(=O)OCC(C)(COC(=O)CCC1CCCCC1)COC(=O)CCC1CCCCC1)CCCC(=O)OCC(C)(COC(=O)CCC1CCCCC1)COC(=O)CCC1CCCCC1 [Lipid 62, bis(3-((3-cyclohexylpropanoyl)oxy)-2-(((3-cyclohexylpropanoyl)oxy)methyl)-2-methylpropyl) 5-((4-(dimethylamino)butanoyl)oxy)nonanedioate] |  | 2930.66 |  | 
3 | 0.114 |  | 81.62 | 91.5 | 7.08 | CC1CCC(CCC(=O)OCC(C)(COC(=O)CCC2CCC(C)CC2)COC(=O)CCN(CCC(=O)OCC(C)(COC(=O)CCC2CCC(C)CC2)COC(=O)CCC2CCC(C)CC2)C(=O)OCCCN(C)C)CC1 (centres unmarked) [Lipid 46] | 82.9 | 958.2 |  | 
4 | 0.064 | BLOQ | 70.54 | 95.3 | 6.84 | CN(C)CCCC(=O)OC(CCCC(=O)OCC(COC(=O)CCC1CCCCC1)COC(=O)CCC1CCCCC1)CCCC(=O)OCC(COC(=O)CCC1CCCCC1)COC(=O)CCC1CCCCC1 [Lipid 61, bis(3-((3-cyclohexylpropanoyl)oxy)-2-(((3-cyclohexylpropanoyl)oxy)methyl)propyl)5-((4-(dimethylamino)butanoyl)oxy)nonanedioate] |  | 4238.52 |  | 
5 | 0.13 | 28100 ng/g | 97.08 | 94.7 | 7.04 | CC1CCC(CCC(=O)OCC(C)(COC(=O)CCC2CCC(C)CC2)COC(=O)CCN(CCCCCN(C)C)CCC(=O)OCC(C)(COC(=O)CCC2CCC(C)CC2)COC(=O)CCC2CCC(C)CC2)CC1 (centres unmarked) [Lipid 50, (((3,3′-((5-(dimethylamino)pentyl)azanedivl)bis(propanovl))bis(oxy))bis(methylene))bis(2-methylpropane-2,1,3-triyl)tetrakis(3-(4-methylcyclohexyl) propanoate)] | 93.5 | 579.2 |  | 
6 | 0.103 | 63300 ng/g | 71.78 | 93.0 | 6.59 | CCCCCCC(C)(C)C(=O)OCC(COC(=O)CCCN(CCCC(=O)OCC(COC(=O)C(C)(C)CCCCCC)COC(=O)C(C)(C)CCCCCC)C(=O)SCCCN(C)C)COC(=O)C(C)(C)CCCCCC [Lipid 55] | 72.17 | 10312.89 |  | 
7 | 0.081 | BLOQ | 70.09 | 93.4 | 6.49 | CN(C)CCCC(=O)OC(CCCC(=O)OC(COC(=O)CCCC1CCCCC1)COC(=O)CCCC1CCCCC1)CCCC(=O)OC(COC(=O)CCCC1CCCCC1)COC(=O)CCCC1CCCCC1 |  | 19337.84 |  | 
8 | 0.059 | 36000 ng/g | 65.71 | 90.4 | 6.53 | CC1CCC(CCC(=O)OCC(C)(COC(=O)CCC2CCC(C)CC2)COC(=O)CCC(CCC(=O)OCC(C)(COC(=O)CCC2CCC(C)CC2)COC(=O)CCC2CCC(C)CC2)OC(=O)CCCN(C)C)CC1 (centres unmarked) [Lipid 51, Bis(2-methyl-3-((3-(4-methylcyclohexyl)propanoyl)oxy)-2-(((3-(4-methylcyclohexyl)propanoyl)oxy)methyl)propyl) 4-((4-(dimethylamino)butanoyl)oxy)heptanedioate] | 65.23 | 868.5 |  | 
9 | 0.072 | BLOQ | 76.03 | 90.9 | 7.3 | CCCCCCCC(=O)OCC(C)(COC(=O)CCCCCCC)COC(=O)CCCN(CCCC(=O)OCC(C)(COC(=O)CCCCCCC)COC(=O)CCCCCCC)C(=O)SCCCN(C)C [Lipid 54] | 86.88 | 25548.45 |  | 
10 | 0.065 | BLOQ | 78.98 | 94.3 | 6.52 | CN(C)CCCC(=O)OC(CCCC(=O)OC(COC(=O)CCC1CCCCC1)COC(=O)CCC1CCCCC1)CCCC(=O)OC(COC(=O)CCC1CCCCC1)COC(=O)CCC1CCCCC1 [Lipid 57, bis(1,3-bis((3-cyclohexylpropanoyl)oxy)propan-2-yl) 5-((4-(dimethylamino)butanoyl)oxy)nonanedioate] |  | 21737.69 |  | 
11 | 0.081 | 81900 ng/g | 67.34 | 91.5 | 6.55 | CCCCCC(C)(C)C(=O)OCC(C)(COC(=O)CCCN(CCCC(=O)OCC(C)(COC(=O)C(C)(C)CCCCC)COC(=O)C(C)(C)CCCCC)C(=O)SCCCN(C)C)COC(=O)C(C)(C)CCCCC [Lipid 56] | 46.3 | 5463.76 |  | 
12 | 0.038 | BLOQ | 77.62 | 90.8 | 7.2 | CN(C)CCCSC(=O)N(CCCC(=O)OCC(COC(=O)CCC1CCCCC1)COC(=O)CCC1CCCCC1)CCCC(=O)OCC(COC(=O)CCC1CCCCC1)COC(=O)CCC1CCCCC1 [Lipid 52] | 69.66 | 17888.62 |  | 
13 | 0.087 | 53300 ng/g | 65.95 | 93.9 | 6.28 | CCCCC(C)(C)CC(=O)OCC(C)(COC(=O)CCC(CCC(=O)OCC(C)(COC(=O)CC(C)(C)CCCC)COC(=O)CC(C)(C)CCCC)OC(=O)CCCN(C)C)COC(=O)CC(C)(C)CCCC [Lipid 60, bis(3-((3,3-dimethylheptanol)oxy)-2-(((3,3-dimethylheptanol)oxy)methyl)-2-methylpropyl) 4-((4-(dimethylamino)butanoyl)oxy)heptanedioate] |  | 1631.03 |  | 

Row | SMILES | PDI [1] | Invivo lipid degradability ng/g of Liver tissue @ 0.3 mg/kg dose [2] | Size (nm) [3] [nm] | EE % [3] [%] | pKa [4] | FVII KD % @ 0.03 mg/kg (factor VII) [%] | EPO expression in ng/mL @ 0.3 mg/kg (hEPO) [ng/mL] | Invivo lipid degradability ng/g of Liver tissue @ 0.3 mg/kg dose [5] [ng/g] | pKa ([4]; Table 3, formulation not indicated)
14 | Cc1ccc(CCC(C)C(=O)OCC(COC(=O)C(C)CCc2ccc(C)cc2)OC(=O)CCCN(CCCC(=O)OC(COC(=O)C(C)CCc2ccc(C)cc2)COC(=O)C(C)CCc2ccc(C)cc2)C(=O)SCCCN(C)C)cc1 (centres unmarked) [Lipid 63, ((4,4′-((((3-(dimethylamino)propyl)thio)carbonyl)azanediyl)bis(butanoyl))bis(oxy))bis(propane-2,1,3-triyl)tetrakis(2-methyl-4-(p-tolyl)butanoate)] | 0.046 |  | 82.65 | 85.9 |  | 76.17 | 4601 | 603 ± 57.6 | 
15 | CCn1cc(CCC(C)C(=O)OCC(COC(=O)C(C)CCc2cn(CC)c3ccccc23)OC(=O)CCCN(CCCC(=O)OC(COC(=O)C(C)CCc2cn(CC)c3ccccc23)COC(=O)C(C)CCc2cn(CC)c3ccccc23)C(=O)SCCCN(C)C)c2ccccc21 (centres unmarked) [Lipid 43, ((4,4′-((((3-(dimethylamino)propyl)thio)carbonyl)azanediyl)bis(butanoyl))bis(oxy))bis(propane-2,1,3-triyl)tetrakis(4-(1-ethyl-1H-indol-3-yl)-2-methylbutanoate)] | 0.05 | 1970 ± 379 ng/g | 92.35 | 90 |  | 15.24 | 14.3 |  | 6.33
